Reference: patent US9266844B2 (priority 2012, dated 2016)
Entries after “also recorded” stand apart in the source; their conditions may differ. Where two headings read alike, the source gives them in different places.

Key:
[1] = target: SARS-CoV nsp13 helicase (Severe acute respiratory syndrome coronavirus, UniProt P0C6X7); test: biochemical
[2] = tested on: dsDNA (31/18-mer); assay type: binding
[3] = in vitro; settings: human
[4] = target: Dengue virus NS3 helicase (Dengue virus type 2, UniProt P14340); assay type: biochemical
Dengue virus NS3 helicase, sequence (P14340 1476-2093 limits assumed): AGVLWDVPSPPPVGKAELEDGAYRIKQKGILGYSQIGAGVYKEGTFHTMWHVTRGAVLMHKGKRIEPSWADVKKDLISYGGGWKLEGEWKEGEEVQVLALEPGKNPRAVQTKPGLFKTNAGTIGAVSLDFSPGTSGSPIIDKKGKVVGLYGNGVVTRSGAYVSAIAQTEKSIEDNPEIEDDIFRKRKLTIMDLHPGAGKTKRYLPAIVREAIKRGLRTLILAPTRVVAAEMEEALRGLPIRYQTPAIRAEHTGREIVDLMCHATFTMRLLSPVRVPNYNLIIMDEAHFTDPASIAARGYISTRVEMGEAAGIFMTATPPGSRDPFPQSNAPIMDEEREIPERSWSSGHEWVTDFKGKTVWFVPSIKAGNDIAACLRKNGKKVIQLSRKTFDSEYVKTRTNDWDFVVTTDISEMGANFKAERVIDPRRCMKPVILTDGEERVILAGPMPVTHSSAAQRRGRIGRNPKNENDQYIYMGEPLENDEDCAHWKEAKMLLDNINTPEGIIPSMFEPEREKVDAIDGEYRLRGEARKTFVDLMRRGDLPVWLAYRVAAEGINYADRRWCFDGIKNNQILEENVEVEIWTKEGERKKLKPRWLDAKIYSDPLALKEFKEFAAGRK

[5] = target: Klenow fragment of E. coli DNA polymerase I (KF) (Escherichia coli, UniProt P00582); assay type: biochemical
Klenow fragment of E. coli DNA polymerase I (KF), sequence (P00582 324-928): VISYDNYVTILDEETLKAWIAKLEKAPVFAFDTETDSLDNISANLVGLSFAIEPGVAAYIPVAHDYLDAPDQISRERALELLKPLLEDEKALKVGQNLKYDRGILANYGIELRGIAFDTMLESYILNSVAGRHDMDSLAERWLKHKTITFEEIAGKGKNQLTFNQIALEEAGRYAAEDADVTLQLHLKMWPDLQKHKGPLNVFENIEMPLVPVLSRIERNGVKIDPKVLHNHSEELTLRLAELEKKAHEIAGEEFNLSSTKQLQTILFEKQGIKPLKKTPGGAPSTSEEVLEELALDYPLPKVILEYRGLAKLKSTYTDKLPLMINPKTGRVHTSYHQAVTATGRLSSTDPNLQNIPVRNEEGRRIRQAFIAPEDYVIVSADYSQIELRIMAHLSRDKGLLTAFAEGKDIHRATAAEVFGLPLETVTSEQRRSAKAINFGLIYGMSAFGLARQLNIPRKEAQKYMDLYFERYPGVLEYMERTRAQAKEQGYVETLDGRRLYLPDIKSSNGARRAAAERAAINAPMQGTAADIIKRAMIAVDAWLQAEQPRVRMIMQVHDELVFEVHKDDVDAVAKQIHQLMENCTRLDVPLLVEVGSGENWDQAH

[6] = tested on: HEK293T cells
[7] = target: WT-nsp13 (Severe acute respiratory syndrome coronavirus, UniProt P0C6X7); test: biochemical
[8] = tested on: SARS-CoV replicon; assay type: cell-based
[9] = target: T1, nsp13 (Severe acute respiratory syndrome coronavirus, UniProt P0C6X7); assay type: binding, SARS-CoV
[10] = target: T1, nsp13; test: biochemical; assay type: biochemical, SARS-CoV
[11] = tested on: RNA pol II/CMV promoter; assay type: cell-based
[12] = target: FMDV 3Dpol (Foot-and-mouth disease virus serotype O, UniProt P03305); assay type: biochemical
FMDV 3Dpol, sequence (P03305 1863-2332 limits assumed): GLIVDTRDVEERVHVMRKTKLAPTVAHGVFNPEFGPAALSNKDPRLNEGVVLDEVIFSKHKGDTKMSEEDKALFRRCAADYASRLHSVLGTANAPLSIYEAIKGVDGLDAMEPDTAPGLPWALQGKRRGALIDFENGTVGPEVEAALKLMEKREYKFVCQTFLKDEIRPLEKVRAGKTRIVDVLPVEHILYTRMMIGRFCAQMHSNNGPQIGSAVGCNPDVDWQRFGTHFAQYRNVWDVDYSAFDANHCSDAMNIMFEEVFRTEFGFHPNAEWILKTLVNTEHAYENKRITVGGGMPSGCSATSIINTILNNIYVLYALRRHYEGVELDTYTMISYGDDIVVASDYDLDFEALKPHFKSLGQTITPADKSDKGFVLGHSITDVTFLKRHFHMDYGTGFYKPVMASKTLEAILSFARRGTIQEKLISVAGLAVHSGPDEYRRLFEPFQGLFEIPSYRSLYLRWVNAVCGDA

[13] = target: T1, nsp13; assay type: biochemical, SARS-CoV
[14] = target: HCV NS3h helicase (Hepatitis C virus genotype 1a, UniProt P27958); assay type: biochemical
HCV NS3h helicase, sequence (P27958 1193-1657 limits assumed): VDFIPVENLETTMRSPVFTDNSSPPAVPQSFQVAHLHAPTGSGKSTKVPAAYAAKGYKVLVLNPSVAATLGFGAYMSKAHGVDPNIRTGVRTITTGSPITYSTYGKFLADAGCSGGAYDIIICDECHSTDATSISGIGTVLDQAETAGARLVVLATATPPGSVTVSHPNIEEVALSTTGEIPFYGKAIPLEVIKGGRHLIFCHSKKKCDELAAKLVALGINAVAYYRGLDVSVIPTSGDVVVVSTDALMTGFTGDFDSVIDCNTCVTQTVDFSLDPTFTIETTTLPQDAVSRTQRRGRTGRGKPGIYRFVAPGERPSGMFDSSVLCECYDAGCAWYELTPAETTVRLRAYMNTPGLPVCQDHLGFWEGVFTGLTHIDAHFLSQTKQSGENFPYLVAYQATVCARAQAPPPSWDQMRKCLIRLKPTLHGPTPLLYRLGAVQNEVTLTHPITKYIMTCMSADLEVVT

[15] = target: MoMLV Reverse Transcriptase (Moloney murine leukemia virus, UniProt P03355); assay type: biochemical
[16] = tested on: HEK 293T cells
[17] = tested on: SARS-CoV replicon; test: microbe, parasite or virus in culture; assay type: cell-based; settings: read-out: EC50 Replicon (RT-qPCR)

`C=CCn1c(S)nnc1CSc1ccccc1[N+](=O)[O-]` [SSYA10-001, 3-[(2-nitrophenyl)sulfanylmethyl]-4-prop-2-enyl-1H-1,2,4-triazole-5-thione] gave an IC50 ([1]; IC50 DNA (nsp13 unwinding)) of 5.3 ± 2 µM, an IC50 ([1]; IC50 RNA (nsp13 unwinding)) of 5.7 ± 2.3 µM and an IC50 ([1]; IC50 SARS-CoV RNA (nsp13 unwinding)) of 5.6 ± 0.5 µM. For the same compound, the inhibition at 20 µM ([1]; read-out: inhibition of the helicase activity) was ~100%, the “change of pico green fluorescent counts with dsDNA” value [2] was “did not change” and the CC50 [3] was > 250 µM. For the same compound, the “inhibition of Dengue virus NS3 helicase activity” value [4] was “specific for SARS-CoV helicase”, the “effect on KF polymerization and strand displacement (nucleic acid binding of the substance)” value [5] was “did not prevent” and the “inhibition of KF polymerase” value [5] was “did not cause inhibition”. For the same compound, the “cytotoxicity at 250 μM” value [6] was “No cytotoxicity was observed”, the IC50 [7] was 6 µM and the “effect on SARS-CoV replication (RNase protection assay)” value [8] was “interfered with SARS-CoV replication”. The “effect on nsp13 binding to DNA” value [9] was “did not affect”, the Ki [10] was 6 ± 1.7 µM and the “mode of inhibition with respect to ATP and nucleic acid substrates” value [10] was “non-competitive”. The “amount of RNA synthesized in NRC-transfected cells with vs without compound” value [11] was “No difference was observed”, the “inhibition of FMDV 3Dpol polymerase” value [12] was “did not cause inhibition” and the “effect on ATP hydrolysis by nsp13” value [13] was “did not affect”. The “inhibition of HCV NS3h helicase activity” value [14] was “did not inhibit; also recorded: specific for SARS-CoV helicase”, the “inhibition of MoMLV Reverse Transcriptase” value [15] was “did not cause inhibition” and the “cytostatic effect (cell proliferation)” value [16] was “did not interfere with the proliferation”. For the same compound, the EC50 ([17]; Severe acute respiratory syndrome coronavirus, HEK-293T, 48 h) was 8.95 µM and the EC50 [17] was ~9 µM.
